# Reference: patent publication US20040120938A1, “Ingestible compositions comprising antibacterial agents” (The University of Bath, priority 1998, published 2004)
# Read-outs that look alike come from different tables or passages of the source.
# Experiments:
# [1] = system: nitric oxide (NO) release; experiment: NO release from full fat milk with nitrite and NADH under hypoxia (Test 5); format: biochemical; details: inhibitor 100 μM; for inhibition of the increased NO release of milk gone off at 4° C.: milk kept at 4° C. more than 3 days
# Experimental: (§1) The production of nitric oxide in the following tests and examples was analysed using an ozone chemiluminescence assay in a continuous flow apparatus (Sievers NOA 280) that allows the real time analysis of NO production. The apparatus was modified to allow a constant stream of nitrogen to flow into the reaction chamber. Chemiluminescence data were collected by a data acquisition system; the mean NO produced in parts per billion (ppb) was calculated from readings taken every second and shown as ppb or mV.
# (§2) Progress curves, of molar production of NO against time, were calculated by taking into account the gas flow and the mean level of NO. Molar production of NO was expressed as ppb/sec or mV/sec. Reactions were carried out in a final volume of 1 ml at 37° C. in an atmosphere of <1% oxygen (Stathkelvin combination needle oxygen electrode, Diamond General Corp.).
# (§3) To the “substrates” bijou, 200 μl of 100 mM stock sodium nitrite was added together with 200 μl of the 5 mM reduced NADH to give an assay concentration of 20 mM nitrite and 1 mM reduced NADH.
# (§4) To the “milk” bijou were added 600 μl of milk sample to give an assay volume of 1 ml.
# (f) At t=5 minutes, the contents of the “milk” bijou were injected into the reaction cell using a 1 ml syringe and the release of NO was monitored for a further 20 minutes. The set up was such that the reaction cell was a sealed system having an inlet gas flow of 200 ml/min and a sample extraction flow to the NOA-280 of 200 ml/min. The steady-state generation of NO (which corresponded to a plateau region on the trace of the NO production) was noted to give the mV/s release of NO from the 1 ml assay volume.
# Full fat milk was assayed with 20 mM nitrite and 1 mM NADH as described above in Test 1. […] 600 μl of milk was used in each test giving a protein content in each assay of 20.4 mg.
# The milk was taken and divided into two halves. One was kept at 4° C., and the other at −20° C. Samples of the milk were taken over several days and the generation of NO was investigated using the method described above.
# [2] = molecular target: T1, bovine xanthine oxidase (XOR) (Bos taurus, UniProt P80457); experiment: NO release by XOR with known XOR inhibitors (Test 4); format: biochemical; details: inhibitor 100 μM in the XOR/nitrite/NADH assay of Test 1
# T1 construct: purchased Biozyme, Blaenavon, UK batch 104AX
# T1 sequence (P80457 whole entry): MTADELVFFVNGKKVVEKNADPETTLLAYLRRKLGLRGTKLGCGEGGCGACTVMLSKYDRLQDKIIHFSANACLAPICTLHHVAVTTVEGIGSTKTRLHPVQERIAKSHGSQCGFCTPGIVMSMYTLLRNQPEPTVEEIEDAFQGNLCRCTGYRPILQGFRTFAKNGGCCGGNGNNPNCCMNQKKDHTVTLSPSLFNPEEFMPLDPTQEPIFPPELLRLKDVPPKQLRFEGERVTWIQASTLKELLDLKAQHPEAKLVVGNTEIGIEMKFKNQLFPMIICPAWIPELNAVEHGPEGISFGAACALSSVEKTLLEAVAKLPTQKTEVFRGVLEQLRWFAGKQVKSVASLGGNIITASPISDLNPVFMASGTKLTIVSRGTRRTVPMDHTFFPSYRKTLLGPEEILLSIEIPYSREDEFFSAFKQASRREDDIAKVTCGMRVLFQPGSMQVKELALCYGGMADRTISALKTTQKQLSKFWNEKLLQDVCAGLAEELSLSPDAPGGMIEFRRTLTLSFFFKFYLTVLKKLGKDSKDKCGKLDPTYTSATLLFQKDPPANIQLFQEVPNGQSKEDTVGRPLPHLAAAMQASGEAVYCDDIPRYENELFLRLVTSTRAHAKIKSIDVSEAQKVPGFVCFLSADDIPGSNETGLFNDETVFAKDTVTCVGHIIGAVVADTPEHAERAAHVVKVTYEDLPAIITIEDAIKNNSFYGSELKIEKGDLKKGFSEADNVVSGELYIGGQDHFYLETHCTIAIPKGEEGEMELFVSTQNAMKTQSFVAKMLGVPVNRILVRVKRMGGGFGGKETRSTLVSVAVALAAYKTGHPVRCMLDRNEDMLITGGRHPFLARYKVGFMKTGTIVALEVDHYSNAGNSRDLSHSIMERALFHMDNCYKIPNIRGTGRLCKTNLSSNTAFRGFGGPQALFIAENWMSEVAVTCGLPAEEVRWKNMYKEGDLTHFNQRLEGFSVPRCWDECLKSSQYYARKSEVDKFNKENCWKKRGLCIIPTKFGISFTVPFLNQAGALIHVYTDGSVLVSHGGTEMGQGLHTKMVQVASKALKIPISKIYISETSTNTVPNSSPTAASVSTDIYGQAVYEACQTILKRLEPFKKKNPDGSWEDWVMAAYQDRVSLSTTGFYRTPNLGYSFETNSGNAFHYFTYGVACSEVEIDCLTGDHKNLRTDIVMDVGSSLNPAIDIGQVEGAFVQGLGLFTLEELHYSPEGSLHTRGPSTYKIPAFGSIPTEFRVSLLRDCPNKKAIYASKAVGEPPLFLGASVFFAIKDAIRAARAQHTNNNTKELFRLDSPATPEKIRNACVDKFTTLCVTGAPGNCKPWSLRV
# Experimental: Bovine xanthine oxidase was diluted with PBS as indicated in Table 1 below to give 300 μl of enzyme mixture. The enzyme mixture (300 μl) was mixed with 700 μl of a substrate mixture to give an assay volume of 1 ml. The substrate mixture comprised nitrite which was added to the assay to give a concentration of 1 mM and NADH which was added to give a concentration of 0.3 mM. Where, for example in Tests 2 to 4 below, additional components are added to the sample, the amount of PBS is adjusted accordingly to give an assay volume of 1 ml. The sample was placed in the reaction vessel of the NO determination apparatus under a nitrogen atmosphere and the generation of NO was measured and the results calculated as a steady state rate in mV/s. […] Two different inhibitors were used. Oxypurinol was used at a concentration of 100 μM. Oxypurinol is a molybdenum site-specific inhibitor. Diphenyliodonium (DPI) was used at a concentration of 100 μM. DPI is a FAD site inhibitor.
# [3] = system: nitric oxide (NO) release; experiment: NO release from formula feeds with nitrite and NADH (Test 7); format: biochemical; details: inhibitor 100 μM
# Experimental: as §1, §2, §3, §4
# (f) At t=5 minutes, the contents of the “milk” bijou were injected into the reaction cell using a 1 ml syringe and the release of NO was monitored for a further 20 minutes. […]
# [4] = system: Lactobacillus casei 6375; experiment: Bacterial growth rate by optical density, 96 well plate (Tests 8(f), 8(g)); format: cell-based
# Experimental: (§5) Bacteria were seeded into nutrient broth (NB) and grown over night at 37° C. The culture was then counted and normalised to give a final cell concentration of 1.8×10^7 cells well^−1 into the wells of a 96 well plate in fresh nutrient broth. The optical density of each well was monitored every 15 minutes as a measure of the growth rate of each bacterial species. Growth curves were generated for each species and the maximal rate of growth (logarithmic phase) was measured. Cells were treated to a range of experimental conditions in which the growth rate of cells was related to a control of untreated cells. The results were expressed as a percentage of the growth rate of the control cells.
# (§6) (i) At a fixed concentration of hypoxanthine (100 μM) a range of purified XO protein concentrations were added at time 0 minutes. The optical density was followed and the growth rate calculated.
# (§7) (ii) The growth rate was also measured in relation to the concentration of hypoxanthine, using 30 μg of XO with cells seeded as described above.
# (§8) (iv) The effect of XO hypoxanthine addition was measured on the growth rate of a range of bacterial species with 30 […] XO at varying hypoxanthine concentrations using cells seeded as described above.
# [5] = system: Bacillus sp; details: read-out: Half maximal concentration H2O2, bolus at beginning of logarithmic growth
# Experimental: as §5, §8
# [6] = system: Micrococcus sp; details: read-out: Half maximal concentration H2O2, bolus at beginning of logarithmic growth
# Experimental: as §5, §8
# [7] = system: Staphylococcus aureus 6751; experiment: Bacterial growth rate by optical density, 96 well plate (Tests 8(f), 8(g)); format: cell-based
# Experimental: as §5, §6, §7, §8
# [8] = system: Staphylococcus aureus; experiment: Incubation of Staphylococcus aureus with SIN-1, growth; format: cell-based; details: in dependence on the amount added
# Experimental: Cells cultured as described above were diluted to suitable working concentrations (10^4-10^5 Cells Ml^−1) in sterile phosphate buffered saline (PBS). […] Aliquots were taken from the cell cultures and plated on to nutrient agar and incubated in a warm room at 37° C. overnight. Viable cells formed colonies on the agar and were counted. The number of colonies formed was related to an untreated control and a graph of the results is shown in FIG. 1, which illustrates the effect of ONOO^− on cell viability.
# [9] = system: superoxide; experiment: Measurable NO in the XO/hypoxanthine system with superoxide dismutase; format: biochemical; details: added to the Xo/hypoxanthine system; oxygen 0 to 2%
# [10] = system: bacteria in pasteurised semi skimmed milk; details: 100 μM in pasteurised semi skimmed milk, 4-8° C., 8 days
# Experimental: Pasteurised semi skimmed milk 1 ml was aliquoted into 7 sterile plastic bijou bottles comprising control and treated hypoxanthine (Hxan) groups. […] The samples were stored refrigerated at 4-8° C. until required on a specific day when a control and treated sample was incubated at 37° C. for 30 minutes. A 100 μl aliquot was taken from each sample and spread onto nutrient agar which was then incubated over night at 37° C. The total number of colonies formed regardless of type was counted and expressed for each treatment as the colony forming units per ml of the original test sample (CFU ml^−1).
compound,measurement,setting,value
O=c1[nH]c(=O)c2c[nH]nc2[nH]1 [Oxypurinol],NO generation of fresh full fat milk with inhibitor,[1],no detectable NO generation
same,inhibition of the increased NO release of milk gone off at 4° C.,[1],not inhibited
same,NO release,[2],0.00 mV/s
same,inhibition of NO release of 7 days old Cow and Gate formula,[3],not inhibited
same,effect on XO/hypoxanthine growth inhibition,"[4]; 30 μg XO and 200 μM hypoxanthine, range of concentrations",reduce the effect of XO/hypoxanthine growth inhibition in a dose dependent manner
same,"growth rate of Lactobacillus, added alone","[4]; highest concentration, alone",no effect
"OO [H2O2, hydrogen peroxide]",IC50,[5],77.6 µM
same,IC50,[6],19.5 µM
same,growth inhibition,"[7]; S. aureus, 50% growth reduction not observed at the concentration ranges used",very limited
same,IC50,"[4]; read-out: Half maximal concentration H2O2, Lactobacillus casei, bolus at beginning of logarithmic growth",305 µM
"N=c1c[n+](N2CCOCC2)[n-]o1 [SIN-1, 3-morpholinosydnonimine]",growth of Staphylococcus aureus,[8],reduced growth
superoxide dismutase,amount of measurable NO,[9],increase the amount of measurable NO
"O=c1[nH]cnc2nc[nH]c12 [Hypoxanthine, hypoxanthine]",total number of colonies formed (CFU ml^−1),[10],reduce the total number of colonies formed
same,growth rate,"[7]; Staphylococcus, in the presence of 30 μg XO",reduced the growth rate
same,IC50,"[4]; Lacticaseibacillus casei, 6375, Lactobacillus, at 30 μg XO, read-out: half maximal hypoxanthine dose",104 µM
"c1ccc([I+]c2ccccc2)cc1 [DPI, Diphenyliodonium]",NO generation of fresh full fat milk with inhibitor,[1],no detectable NO generation
same,inhibition of the increased NO release of milk gone off at 4° C.,[1],not inhibited
same,NO release,[2],0.00 mV/s
same,inhibition of NO release of 7 days old Cow and Gate formula,[3],not inhibited
